Experimental data published in US11591306B2, “Vitamin E-based amphipathic compound, and use thereof” (Industry-University Cooperation Foundation Hanyang …, priority 2017, dated 2023).

Experiments:
[1] = biological target: T1, MelBSt (melibiose permease) (Salmonella typhimurium, UniProt P30878); assay: MelBSt extraction/solubilization and thermal stability, SDS-PAGE and Western blotting
T1 construct: made in house; host or cells: E. coli DW2 (ΔmelB and ΔlacZY), plasmid pK95ΔAHB/WT MelBSt/CH10
Description: Specifically, Salmonella typhimurium MelBSt (melibiose permease) having a 10 His tag at the C-terminus was expressed in E. coli DW2 cells (ΔmelB and ΔlacZY) using a pK95ΔAHB/WT MelBSt/CH10 plasmid. Cell growth and membrane preparation were carried out according to the methods disclosed in the paper written by A. S. Ethayathulla et al. (Nat. Commun. 2014, 5, 3009). A protein assay was performed using a Micro BCA kit (Thermo Scientific, Rockford, Ill.). MelBSt stability in VEGs or DDM was evaluated using the protocol disclosed in Nat. Methods 2010, 7, 1003-1008, written by P. S. Chae et al. A MelBSt-containing membrane sample (the final protein concentration was 10 mg/mL) was incubated in a solubilization buffer containing 1.5% (w/v) DDM or VEGs (50 mM sodium phosphate, pH 7.5, 200 mM NaCl, 10% glycerol, 20 mM melibiose) at two different temperatures (0 and 23° C.) for 90 minutes. To remove an insoluble material, ultracentrifugation was performed using a Beckman Optima™ MAX ultracentrifuge equipped with a TLA-100 rotor at 355,590 g and 4° C. for 30 minutes. […] The loaded samples were analyzed by SDS-15% PAGE, and then visualized by immunoblotting with a Penta-His-HRP antibody (Qiagen, Germantown, Md.).
To assess the thermal stability of MelBSt in various amphipathic molecules, MelBSt extracted with individual amphipathic molecules at 23° C. was subjected to additional thermal treatment at three different temperature (45, 55 and 65° C.) and ultracentrifugation, followed by SDS-15% PAGE and Western blotting. MelBSt was detected using a SuperSignalWest Pico chemiluminescent substrate by an ImageQuant LAS 4000 Biomolecular Imager (GE Healthcare Life Science).

[2] = Hydrodynamic radius of micelles by dynamic light scattering (DLS); type: physicochemical; conditions: at 1.0 wt %
Description: A method of measuring the radius of a micelle is not particularly limited, but may be a method well known in the art, for example, dynamic light scattering (DLS).
(§1) To identify the properties of VEGs synthesized according to the synthetic methods of Preparation Examples 1 to […] molecular weights (M.W.) and critical micellar concentrations (CMCs) of VEGs, and the hydrodynamic radii (Rh) of formed micelles were measured.
(§2) Specifically, the CMCs were measured using hydrophobic fluorescence staining and diphenylhexatriene (DPH), and the hydrodynamic radii (Rh) of the micelles formed by each formulation were measured by dynamic light scattering (DLS).

UapA = UapA (Emericella nidulans, UniProt Q07307, G411V); assay: UapA extraction and thermal stability by fluorescence size exclusion chromatography (FSEC); parameters: made in house
UapA, sequence (Q07307 12-574 G411V): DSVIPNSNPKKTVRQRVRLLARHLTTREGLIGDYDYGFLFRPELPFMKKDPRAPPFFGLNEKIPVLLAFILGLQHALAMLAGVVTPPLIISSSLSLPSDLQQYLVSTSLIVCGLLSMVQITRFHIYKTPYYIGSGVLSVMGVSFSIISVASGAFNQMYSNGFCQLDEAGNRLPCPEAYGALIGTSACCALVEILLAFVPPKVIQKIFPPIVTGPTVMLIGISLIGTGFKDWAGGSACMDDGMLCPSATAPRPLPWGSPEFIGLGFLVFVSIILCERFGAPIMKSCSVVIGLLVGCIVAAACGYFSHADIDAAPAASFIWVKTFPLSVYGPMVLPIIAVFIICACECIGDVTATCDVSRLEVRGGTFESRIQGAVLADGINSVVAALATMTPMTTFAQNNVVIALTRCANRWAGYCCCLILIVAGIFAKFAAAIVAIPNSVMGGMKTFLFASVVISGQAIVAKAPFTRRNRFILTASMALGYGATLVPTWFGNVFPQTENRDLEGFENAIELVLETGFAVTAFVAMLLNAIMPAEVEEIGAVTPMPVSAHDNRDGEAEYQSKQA
Description: The membrane containing UapA was resuspended in a pH 8.0 PBS buffer containing 10 mM imidazole, 150 mM NaCl and 10% glycerol, and a protein concentration was measured. The membrane was adjusted to a concentration of 1 mg/ml, and a 1 ml aliquot was incubated for 60 minutes with each of 1.0 mL of DDM, LMNG, VEG-3 and VEG-5, on ice under stirring. A 100 uL aliquot was obtained from each tube and subjected to ultracentrifugation for 10 minutes at 150,000 g, and then fluorescent SEC (FSEC) was performed on each sample. The remaining soluble fractions were incubated for 10 minutes at 45° C. The thermally-treated samples were applied to FSEC to monitor the integrity of a transporter. FSEC was performed using a Superose6 column (GE Healthcare) equilibrated with a buffer containing an appropriate preparation (DDM, LMNG, VEG-3 or VEG-5).

β2AR = biological target: T2, β2AR (Homo sapiens, UniProt P07550); assay: β2AR stability, [3H]-dihydroalprenolol (DHA) ligand binding; conditions: CMC+0.2 wt %, 10 days at room temperature
T2 construct: made in house; host or cells: Sf9 insect cells, baculovirus
T2 sequence (P07550 whole entry): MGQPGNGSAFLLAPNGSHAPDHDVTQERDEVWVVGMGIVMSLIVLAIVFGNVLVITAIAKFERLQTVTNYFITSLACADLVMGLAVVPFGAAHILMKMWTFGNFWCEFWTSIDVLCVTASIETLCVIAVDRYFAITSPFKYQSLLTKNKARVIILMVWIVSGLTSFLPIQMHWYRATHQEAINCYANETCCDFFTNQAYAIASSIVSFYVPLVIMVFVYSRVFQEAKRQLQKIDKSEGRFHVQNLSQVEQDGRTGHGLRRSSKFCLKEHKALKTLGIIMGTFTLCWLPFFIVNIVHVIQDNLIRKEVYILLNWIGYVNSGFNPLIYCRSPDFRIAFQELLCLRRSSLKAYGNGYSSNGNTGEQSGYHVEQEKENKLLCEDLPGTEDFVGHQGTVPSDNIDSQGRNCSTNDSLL
Description: A receptor was expressed in Sf9 insect cells infected with Baculovirus and solubilized in 1% DDM. The DDM-solubilized receptor was purified by alprenolol-sepharose in the presence of 0.01% cholesteryl succinate (CHS). β2AR purified by DDM was diluted with a buffer containing DDM or VEGs (VEG-1, VEG-2, VEG-3 and VEG-5) to reach the final concentration of CMC+0.2 wt %. β2AR solubilized in each compound was stored for 10 days at room temperature, and the ligand binding ability of the receptor was measured at regular intervals by incubating the receptor with 10 nM radioactive [^3H]-dihydroalprenolol (DHA) for 30 minutes at room temperature. The mixture was loaded into a G-50 column, and a supernatant was collected using a certain amount of binding buffer (supplemented with […] pH 7.5, 100 mM NaCl, 0.5 mg/ml BSA). In addition, a 15 ml scintillation fluid was added. Receptor-binding [^3H]-DHA was measured using a scintillation counter (Beckman).

β2AR-Gs complex = biological target: T3, β2AR-Gs complex (Homo sapiens, UniProt P07550); assay: β2AR-Gs complex stability by analytical gel filtration (SEC); conditions: complex purified in VEG-3, 3 and 15-day incubation, compound-free running buffer
T3 construct: made in house
T3 sequence (P07550 whole entry): as above
T3 sequence (P63092 whole entry partner): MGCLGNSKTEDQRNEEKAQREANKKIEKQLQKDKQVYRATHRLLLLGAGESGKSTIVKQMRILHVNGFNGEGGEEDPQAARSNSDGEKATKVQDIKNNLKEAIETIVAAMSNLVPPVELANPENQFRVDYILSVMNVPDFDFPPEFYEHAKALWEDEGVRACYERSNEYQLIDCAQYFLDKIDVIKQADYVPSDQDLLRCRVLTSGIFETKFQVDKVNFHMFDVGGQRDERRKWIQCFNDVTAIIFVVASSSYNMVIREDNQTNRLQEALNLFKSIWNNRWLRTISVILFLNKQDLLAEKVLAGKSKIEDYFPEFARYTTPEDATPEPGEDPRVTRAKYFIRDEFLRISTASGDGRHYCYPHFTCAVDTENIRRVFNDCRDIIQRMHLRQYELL
T3 sequence (P62873 whole entry partner): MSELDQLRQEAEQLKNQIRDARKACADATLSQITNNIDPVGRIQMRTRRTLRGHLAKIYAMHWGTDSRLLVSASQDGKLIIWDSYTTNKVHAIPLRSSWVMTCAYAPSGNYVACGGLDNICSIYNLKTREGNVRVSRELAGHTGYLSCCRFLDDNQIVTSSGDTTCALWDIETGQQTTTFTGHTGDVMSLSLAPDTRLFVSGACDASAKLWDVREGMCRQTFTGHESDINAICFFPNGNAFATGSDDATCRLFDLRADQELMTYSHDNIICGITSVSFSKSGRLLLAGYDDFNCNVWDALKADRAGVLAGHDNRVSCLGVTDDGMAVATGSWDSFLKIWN
T3 sequence (P59768 2-68 partner limits assumed): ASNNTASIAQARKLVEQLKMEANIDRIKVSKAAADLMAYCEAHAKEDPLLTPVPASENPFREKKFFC
Description: 100 μM β2AR solubilized in 0.1% DDM mixed with 120 μM Gs heterotrimer for 30 minutes at room temperature. 0.5-unit apyrase (NEB) and 2 mM MgCl2 were added to facilitate complex formation, followed by further incubation for one hour. Subsequently, 1.0% VEG-3 was added such that the final concentration reached 0.2%, and the sample was further incubated for 30 minutes to change DDM to VEG-3. The protein solution was loaded into a M1 Flag column, washed with a series of buffers with different molar ratios of 0.1% DDM buffer to 0.5% VEG-3 buffer to completely change DDM to VEG-3, and the receptor-Gs complex was finally eluted with a 0.05% VEG-3 buffer. Preparative gel filtration was performed to purify the β2AR-Gs complex with a running buffer (20 mM HEPES pH 7.5, 100 mM NaCl, 0.005% DTM-A6, 1 mM BI, […]). To measure the stability of the β2AR-Gs complex in VEG-3, analytical gel filtrations were performed using the running buffer as above, but after 3 and 15-day incubation, performed without VEG-3 (compound-free condition).

[3] = Critical micelle concentration by hydrophobic fluorescence staining with diphenylhexatriene (DPH); type: physicochemical; conditions: aqueous solution
Description: A method of measuring CMC is not particularly limited, and may be a method widely known in the art, for example, fluorescent staining using diphenylhex riene (DPH).
as §1, §2

T1 sequence (P30878 whole entry): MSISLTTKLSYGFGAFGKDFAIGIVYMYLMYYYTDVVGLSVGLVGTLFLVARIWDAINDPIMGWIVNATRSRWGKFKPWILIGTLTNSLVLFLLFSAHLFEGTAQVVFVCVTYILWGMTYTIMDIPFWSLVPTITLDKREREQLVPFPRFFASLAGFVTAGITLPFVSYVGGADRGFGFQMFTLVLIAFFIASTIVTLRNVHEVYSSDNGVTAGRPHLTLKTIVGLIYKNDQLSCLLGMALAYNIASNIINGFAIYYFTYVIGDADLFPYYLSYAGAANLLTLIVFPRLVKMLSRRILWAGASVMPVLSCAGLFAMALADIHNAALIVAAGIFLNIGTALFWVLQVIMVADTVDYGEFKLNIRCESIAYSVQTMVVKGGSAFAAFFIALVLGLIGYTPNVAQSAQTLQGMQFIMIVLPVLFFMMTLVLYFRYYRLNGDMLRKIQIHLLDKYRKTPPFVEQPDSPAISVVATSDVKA

SMILES: Cc1c(C)c2c(c(C)c1OCC(=O)NC(CO[C@@H]1OC(CO)[C@@H](O[C@H]3OC(CO)[C@@H](O)[C@H](O)C3O)[C@H](O)C1O)CO[C@@H]1OC(CO)[C@@H](O[C@H]3OC(CO)[C@@H](O)[C@H](O)C3O)[C@H](O)C1O)CCC(C)(CCCC(C)CCCC(C)CCCC(C)C)O2 (stereo partly drawn) [VEG-3]
- MelBSt solubilization ability ([1]; 1.5 wt %, extracted at 23° C., then 65° C.): very excellent protein solubilization ability
- MelBSt transporter solubilization ability in the thermal stability experiment ([1]; elevated temperatures (overall)): higher transporter solubilization ability than DDM
- Rh (nm), hydrodynamic radius of micelles [2]: 4.8 ± 0.1 nm
- UapA integrity after thermal treatment (FSEC) (UapA; 45° C. for 10 minutes): maintained protein integrity
- Ability to extract and solubilize UapA (FSEC) (UapA; before thermal treatment, 60 minutes on ice): LMNG and DDM were superior to VEG-3 and VEG-5
- Long-term β2AR activity ([3H]-DHA binding) (β2AR): consistently maintained during incubation for 10 days
- Integrity of the purified β2AR-Gs complex (SEC) (β2AR-Gs complex): continuously maintains its integrity as a complex for 15 days
- CMC [3]: ~0.002 mM
- CMC (wt %) [3]: ~0.0002 wt %
